Read-outs that look alike come from different tables or passages of the source.
How the values were obtained:
[1] = target: T1, α4β2 subtype of nicotinic acetylcholine receptors (Rattus norvegicus, UniProt P09483+P12390); experiment: Binding assay at α4β2 subtype of nicotinic acetylcholine receptors ([3H]-cytisine, rat brain membrane)
T1 construct: examined using rat brain membrane obtained from whole homogenized brain; from tissue; host or cells: rat whole brain membranes (Fischer-344 male rats)
Source text: (§1) The methods for evaluating the binding capabilities of the compounds at nicotinic acetylcholine receptors are different by subtypes of receptors. The binding capabilities of the compounds at α4β2 nicotinic acetylcholine receptors are examined using rat brain membrane obtained from whole homogenized brain, and determining the inhibiting rate of the compounds against [^3H]-cytisine binding to said brain membrane. Furthermore, the binding capabilities of the compounds at α1β1γδ nicotinic acetylcholine receptors are examined using homogenized rat muscle, and determining the inhibiting rate of the compounds against [^3H]-α-bungarotoxin binding to said muscle homogenate.
Binding Assays at α4β2 Subtype of Nicotinic Acetylcholine Receptors
(1) Preparation of Rat Brain Membrane Containing α4β2 Subtype of Nicotinic Acetylcholine Receptors
Rats were housed in the breeding cage controlled of the room temperature at 23±1° C., and the humidity of 55±5% for 1 to 4 weeks. Rats (3 to 4 rats per a cage) were housed with lights on for 12 hours daily (from 7:00 to 19:00), and allowed free access to food and water.
Preparation of rat brain membrane containing α4β2 subtype of nicotinic acetylcholine receptors was performed as follow. That is, rat brains were isolated just after sacrificed by decapitation, washed with ice-cooled saline solution and then frozen at −80° C. with liquid nitrogen and stored till using. After thawing the frozen brain, the brain was homogenized in 10 volumes of ice-cooled buffer solution (50 mM of Tris-HCl, 120 mM of NaCl, 5 mM of KCl, 1 mM of MgCl2, 2 mM of CaCl2; pH 7.4; 4° C.) using homogenizer (HG30, Hitachi Kohki Ltd.) for 30 seconds, and the homogenate were centrifuged under 1,000×G for 10 minutes at 4° C. The resulting supernatant was separated and the pellet was homogenized again with half volume of aforementioned prior buffer solution and centrifuged under the same conditions. Combined supernatant was further centrifuged under 40,000×G for 20 minutes at 4° C. The pellet was suspended in buffer solution and used for binding assays at receptors.
(2) Experiments of α4β2 Subtype of Nicotinic Acetylcholine Receptors Binding
Suspensions of membrane pellets containing 400-600 μg of protein were added to test tubes containing test compounds and [^3H]-cytisine (2 nM) in a final volume of 200 μl and incubated for 75 minutes in ice-cooled bath. The samples were isolated by vacuum filtration onto Whatman GF/B filters, which were prerinsed with 0.5% polyethylenimine just prior to sample filtration, using Brandel multi manifold cell harvester. The filters were rapidly washed with buffer solution (3×1 ml). The filters were counted in 3 ml of clearsol I (Nacalai Tesque Inc.).
The analyses of the experimental results were conducted by using the Accufit Competition Program (Beckman Ltd.).

[2] = target: α1β1γδ subtype of nicotinic acetylcholine receptors (Rattus norvegicus, UniProt P18916+P25108+P25109+P25110); experiment: biochemical; assay type: binding; details: for remaining activity at 100 µM: read-out: control % of [3H]-α-Bgt binding at 100 μM of test compound; for remaining activity at 1000 µM: read-out: control % of [3H]-α-Bgt binding at 1,000 μM of test compound
Source text: as §1
Binding Assays at α1β1γδ Subtype of Nicotinic Acetylcholine Receptors
The affinity of the compounds of the present invention to α1β1γδ subtype of nicotinic acetylcholine receptors was measured by the following method, which was modified method described by Garcha H. S., Thomas P., Spivak C.
(1) Preparation of Rat Skeletal Muscles Containing α1β1γδ Subtype of Nicotinic Acetylcholine Receptors
The substantially same animals described in the Biological Experiment 1 were used.
The isolation of α1β1γδ subtype of nicotinic acetylcholine receptors was performed as follow. That is, rat posterior skeletal muscles were isolated just after sacrificed by decapitation, washed with ice-cooled saline solution and then frozen at −80° C. with liquid nitrogen and stored till using. After thawing the frozen muscles, tissue was homogenized ([…]) with buffer solution [2.5 mM of sodium phosphate buffer (pH:7.2), 90 mM of NaCl, 2 mM of KCl, 1 mM of EDTA, 2 mM of benzamidine, 0.1 mM of benzethonium chloride, 0.1 mM of PMSF, 0.01% of sodium azide] in Waring blender (Waring blender 34BL97; WARING PRODUCTS DIVISION DYNAMICS CORPORATION OF AMERICA) for 60 seconds. The homogenate were centrifuged under 20,000×G for 60 minutes at 4° C. The supernatant was separated and the resulting pellet was added to the same buffer (1.5 ml/g wet weight), and homogenized under the same conditions. Triton X100 (2% w/v) was added and the mixture was stirred for 3 hours at 4° C. The centrifugation at 100,000×G for 60 minutes at 4° C. yielded the rat muscle extract as supernatant. This was stored at 4° C. for up to 4 weeks, and used for binding assays at receptors.
(2) Experiments of α1β1γδ Subtype of Nicotinic Acetylcholine Receptors Binding
Receptors binding experiments were performed as follow. That is, the extract of rat muscle containing 600-900 μg of protein was added to test tubes containing test compounds and incubated for 15 minutes at 37° C. Then, to this mixture was added 1 nM of [^3H]-α-bungarotoxin (α-Bgt) and further incubated for 2 hours. The samples were isolated by vacuum filtration onto Whatman GF/B filters, which were prerinsed with 0.5% polyethylenimine just prior to sample filtration, using Brandel multi manifold cell harvester. The filters were rapidly rinsed with washing solution (10 mM of KH2PO4, 150 mM of NaCl, pH 7.2, room temperature) (5×1 ml). The filters were counted in 3 ml of clearsol I (Nacalai Tesque Inc.). The determination of nonspecific binding was incubated in the presence of 1 μM α-Bgt. […] In the receptor binding experiments, said buffer solution was added for adjusting the final concentration of BSA to be 0.05%.
The analyses of the experimental results were conducted by the same way as described in the Biological Experiment 1.

[3] = rat brain membrane, [3H]-cytisine 2 nM, read-out: Affinities for receptors Ki α4β2

T1 sequence (P09483 31-630): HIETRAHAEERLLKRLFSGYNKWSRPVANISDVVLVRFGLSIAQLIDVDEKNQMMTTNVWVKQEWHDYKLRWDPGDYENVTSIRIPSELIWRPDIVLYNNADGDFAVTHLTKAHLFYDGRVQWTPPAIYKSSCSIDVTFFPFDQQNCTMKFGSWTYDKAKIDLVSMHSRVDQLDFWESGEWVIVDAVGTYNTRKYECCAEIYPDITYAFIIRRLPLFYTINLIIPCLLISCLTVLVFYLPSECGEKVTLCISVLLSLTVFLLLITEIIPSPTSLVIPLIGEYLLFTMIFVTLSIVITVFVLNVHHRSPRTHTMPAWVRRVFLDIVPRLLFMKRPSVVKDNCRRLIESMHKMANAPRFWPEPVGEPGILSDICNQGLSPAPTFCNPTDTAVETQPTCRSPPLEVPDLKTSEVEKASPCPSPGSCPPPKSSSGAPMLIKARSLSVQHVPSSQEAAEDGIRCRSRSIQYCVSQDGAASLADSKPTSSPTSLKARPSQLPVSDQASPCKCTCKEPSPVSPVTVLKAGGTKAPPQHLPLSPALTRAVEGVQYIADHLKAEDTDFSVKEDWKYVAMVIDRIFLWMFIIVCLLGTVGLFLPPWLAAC
T1 sequence (P12390 25-500): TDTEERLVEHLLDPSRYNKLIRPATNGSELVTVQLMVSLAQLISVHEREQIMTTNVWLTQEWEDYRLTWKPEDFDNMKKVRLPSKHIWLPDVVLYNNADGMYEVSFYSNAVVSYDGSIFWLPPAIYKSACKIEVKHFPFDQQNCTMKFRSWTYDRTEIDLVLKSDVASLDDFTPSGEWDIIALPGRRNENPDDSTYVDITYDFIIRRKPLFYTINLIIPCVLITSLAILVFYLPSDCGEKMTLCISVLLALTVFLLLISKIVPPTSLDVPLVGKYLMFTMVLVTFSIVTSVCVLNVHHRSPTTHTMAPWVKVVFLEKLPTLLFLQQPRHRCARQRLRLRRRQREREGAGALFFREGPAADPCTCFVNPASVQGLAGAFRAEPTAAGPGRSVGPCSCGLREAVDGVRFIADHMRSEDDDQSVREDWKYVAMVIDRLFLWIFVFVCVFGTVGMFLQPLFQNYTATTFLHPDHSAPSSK
Sequence of α1β1γδ subtype of nicotinic acetylcholine receptors (P25109 24-501): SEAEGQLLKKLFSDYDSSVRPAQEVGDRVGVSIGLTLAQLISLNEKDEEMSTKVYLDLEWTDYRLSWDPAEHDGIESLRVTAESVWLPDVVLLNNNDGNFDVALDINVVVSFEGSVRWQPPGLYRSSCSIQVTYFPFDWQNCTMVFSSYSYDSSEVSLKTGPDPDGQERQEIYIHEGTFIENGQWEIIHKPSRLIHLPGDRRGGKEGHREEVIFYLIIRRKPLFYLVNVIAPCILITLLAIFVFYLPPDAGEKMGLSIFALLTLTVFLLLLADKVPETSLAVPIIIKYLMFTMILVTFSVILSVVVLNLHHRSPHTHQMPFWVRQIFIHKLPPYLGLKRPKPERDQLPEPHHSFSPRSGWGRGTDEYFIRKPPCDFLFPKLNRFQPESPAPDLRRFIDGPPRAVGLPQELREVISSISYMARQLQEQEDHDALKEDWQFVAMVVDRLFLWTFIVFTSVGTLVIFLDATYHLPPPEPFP
Sequence of α1β1γδ subtype of nicotinic acetylcholine receptors (P25110 22-517): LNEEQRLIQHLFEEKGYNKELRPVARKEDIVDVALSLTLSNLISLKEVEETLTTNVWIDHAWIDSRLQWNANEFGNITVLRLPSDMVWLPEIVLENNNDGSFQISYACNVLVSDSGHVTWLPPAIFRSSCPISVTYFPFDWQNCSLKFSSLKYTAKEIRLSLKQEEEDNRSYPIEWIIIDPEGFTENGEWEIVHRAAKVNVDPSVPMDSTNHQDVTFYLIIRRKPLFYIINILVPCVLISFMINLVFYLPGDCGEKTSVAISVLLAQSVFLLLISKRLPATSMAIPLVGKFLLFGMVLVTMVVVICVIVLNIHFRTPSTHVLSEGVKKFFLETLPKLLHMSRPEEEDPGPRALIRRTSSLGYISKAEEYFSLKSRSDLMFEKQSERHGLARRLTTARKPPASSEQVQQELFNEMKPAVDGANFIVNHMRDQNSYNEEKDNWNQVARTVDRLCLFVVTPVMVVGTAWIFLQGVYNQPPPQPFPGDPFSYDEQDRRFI
Sequence of α1β1γδ subtype of nicotinic acetylcholine receptors (P25108 21-457): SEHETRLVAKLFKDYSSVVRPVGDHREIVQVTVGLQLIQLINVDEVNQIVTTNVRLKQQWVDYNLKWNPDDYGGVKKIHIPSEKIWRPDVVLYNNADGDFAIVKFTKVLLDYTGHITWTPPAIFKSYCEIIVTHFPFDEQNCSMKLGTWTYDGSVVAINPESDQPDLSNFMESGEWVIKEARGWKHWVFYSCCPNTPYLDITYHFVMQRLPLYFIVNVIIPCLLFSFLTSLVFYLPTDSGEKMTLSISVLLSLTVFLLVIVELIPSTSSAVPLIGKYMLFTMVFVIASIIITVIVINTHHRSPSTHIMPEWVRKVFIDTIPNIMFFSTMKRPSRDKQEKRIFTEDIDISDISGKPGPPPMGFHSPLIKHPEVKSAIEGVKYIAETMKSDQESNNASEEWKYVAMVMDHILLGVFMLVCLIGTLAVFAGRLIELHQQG

## c1ccc2ncc(C3=NCCCN3)cc2c1 [Compound 25, 2-(3-quinolyl)-1,4,5,6-tetrahydropyrimidine]
[1]; [3]
  Ki: 338 nM
[2]
  remaining activity at 100 µM: 41%
  remaining activity at 1000 µM: 7%

## Clc1ncc(CC2=NCCCN2)s1 [Compound 64, 2-(2-chloro-5-thiazolyl)methyl-1,4,5,6-tetrahydropyrimidine]
[1]
  Ki: 8.1 nM
[2]
  Ki: 23 µM

## c1ncc(CC2=NCCCN2)cn1 [Compound 66, 2-(5-pyrimidyl)methyl-1,4,5,6-tetrahydropyrimidine]
[1]
  Ki: 90 nM
[2]
  Ki: 841 µM

## Cc1cncc(CC2=NCCCN2)c1 [Compound 68, 2-(5-methyl-3-pyridyl)methyl-1,4,5,6-tetrahydropyrimidine]
[1]
  Ki: 203 nM
[2]
  Ki: 231 µM

## C1CN=C(CC2CCOC2)NC1 (stereo not drawn) [Compound 15, 2-(tetrahydrofuran-3-yl)methyl-1,4,5,6-tetrahydropyrimidine]
[1]; [3]
  Ki: 950 nM

## Clc1cc(CC2=NCCN2)cnc1Cl [Compound 49, 2-(5,6-dichloro-3-pyridyl)methyl-2-imidazoline]
[1]; [3]
  Ki: 211 nM
[2]
  Ki: 773 µM

## CC1(C)CN(Cc2ccc(Cl)nc2)C=N1 [Compound 12, 1-(6-chloro-3-pyridyl)methyl-4,4-dimethyl-2-imidazoline]
[1]
  Ki: 268 nM
[2]
  remaining activity at 100 µM: 79%
  remaining activity at 1000 µM: 42%

## Brc1cncc(CC2=NCCCN2)c1 [Compound 16, 2-(5-bromo-3-pyridyl)methyl-1,4,5,6-tetrahydropyrimidine]
[1]
  Ki: 392 nM
[2]
  remaining activity at 100 µM: 63%
  remaining activity at 1000 µM: 30%

## c1cncc(CC2=NCCN2)c1 [Compound 19, 2-(3-pyridyl)methyl-2-imidazoline]
[2]
  remaining activity at 100 µM: 69%
  remaining activity at 1000 µM: 29%

## Fc1ccc(CC2=NCCCN2)cn1 [Compound 48, 2-(6-fluoro-3-pyridyl)methyl-1,4,5,6-tetrahydropyrimidine]
[1]
  Ki: 82 nM
[2]
  Ki: 257 µM

## Clc1ccc(CC2=NCCCN2)cn1 [Compound 8, 2-(6-chloro-3-pyridyl)methyl-1,4,5,6-tetrahydropyrimidine]
[1]
  Ki: 29 nM
[2]
  Ki: 395 µM

## CN1CCN=C1Cc1cnc(Cl)c(Cl)c1 [Compound 53, 2-(5,6-dichloro-3-pyridyl)methyl-1-methyl-2-imidazoline]
[1]
  Ki: 10 nM
[2]
  Ki: 83 µM

## Clc1ncc(CC2=NCCN2)s1 [Compound 65, 2-(2-chloro-5-thiazolyl)methyl-2-imidazoline]
[1]
  Ki: 53 nM
[2]
  Ki: 524 µM

## CC1=NCC(c2cccnc2)N1 (stereo not drawn) [Compound 32, 2-methyl-5-(3-pyridyl)-2-imidazoline]
[1]; [3]
  Ki: 580 nM
[2]
  remaining activity at 100 µM: 69%
  remaining activity at 1000 µM: 35%

## CC1=NCCN1Cc1ccc(Cl)nc1 [Compound 11, 1-(6-chloro-3-pyridyl)methyl-2-methyl-2-imidazoline]
[1]
  Ki: 115 nM
[2]
  remaining activity at 100 µM: 74%
  remaining activity at 1000 µM: 53%

## c1cncc(CC2=NCCCN2)c1 [Compound 18, 2-(3-pyridyl)methyl-1,4,5,6-tetrahydropyrimidine]
[1]
  Ki: 86 nM
[2]
  remaining activity at 100 µM: 62%
  remaining activity at 1000 µM: 18%

## CN1CCCN=C1Cc1ccc(Cl)nc1 [Compound 10, 2-(6-chloro-3-pyridyl)methyl-1-methyl-1,4,5,6-tetrahydropyrimidine]
[1]
  Ki: 1 nM
[2]
  remaining activity at 100 µM: 40%
  remaining activity at 1000 µM: 17%

## Clc1ccc(CC2=NCCN2)cn1 [Compound 7, 2-(6-chloro-3-pyridyl)methyl-2-imidazoline]
[1]
  Ki: 86 nM
[2]
  remaining activity at 100 µM: 80%
  remaining activity at 1000 µM: 51%

## CN1CCCN=C1c1ccc(Cl)nc1 [Compound 4, 2-(6-chloro-3-pyridyl)-1-methyl-1,4,5,6-tetrahydropyrimidine]
[1]
  Ki: 67 nM
[2]
  remaining activity at 100 µM: 46%
  remaining activity at 1000 µM: 16%

## C1=NCC(c2cccnc2)N1 (stereo not drawn) [Compound 33, 5-(3-pyridyl)-2-imidazoline]
[1]
  Ki: 365 nM

## Clc1cc(CN2C=NCCC2)cnc1Cl [Compound 52, 1-(5,6-dichloro-3-pyridyl)methyl-1,4,5,6-tetrahydropyrimidine]
[1]
  Ki: 1.2 nM
[2]
  Ki: 23 µM

## Cc1ccc(CC2=NCCCN2)cn1 [Compound 43, 2-(6-methyl-3-pyridyl)methyl-1,4,5,6-tetrahydropyrimidine]
[1]
  Ki: 167 nM
[2]
  remaining activity at 100 µM: 71%
  remaining activity at 1000 µM: 28%

## Clc1cc(CC2=NCCCN2)cnc1Cl [Compound 36, 2-(5,6-dichloro-3-pyridyl)methyl-1,4,5,6-tetrahydropyrimidine]
[1]
  Ki: 124 nM
[2]
  remaining activity at 100 µM: 81%
  remaining activity at 1000 µM: 34%

## CC1CCNC(Cc2ccc(Cl)nc2)=N1 (stereo not drawn) [Compound 54, 2-(6-chloro-3-pyridyl)methyl-4-methyl-1,4,5,6-tetrahydropyrimidine]
[1]
  Ki: 108 nM
[2]
  Ki: 1740 µM

## CN1CCN=C1Cc1ccc(Cl)nc1 [Compound 9, 2-(6-chloro-3-pyridyl)methyl-1-methyl-2-imidazoline]
[1]
  Ki: 7.7 nM
[2]
  remaining activity at 100 µM: 43%
  remaining activity at 1000 µM: 16%

Source: patent US20030100769A1, “Cyclic amidine compounds” (priority 2000, published 2003)
